Results on two compounds are retold here after patent publication US20260191811A1, “COMBINATION OF CANNABIDIOL AND A PPAR AGONIST” (priority 2020, published 2026).

The subject of experiment [1] is rats. Nature of the experiment: Elevated plus maze. The format is in vivo. The following applies: intra-NAc; for number of entries into the open arms: Experiment 3, FIG. 13. As to the method:
In these experiments, the following was measured: • 1. Time in open arms • 2. Entries into open arms
In these experiments, the apparatus of FIG. 7 was used.
As shown, the apparatus includes 2 open arms and 2 closed arms that form a plus shape. Rats feel more secure in closed spaces and thus it would be expected that more anxious rats would spend more time in the closed arms and less time on the open arms.
Before each test, the same doses of drugs used in the electrophysiology experiments were infused.
The rat was then placed in the middle of the apparatus, facing into the closed arms and recorded for 10 minutes.
The number of entries into the open arms and the total time spent in the open arms was recorded. Less anxious rats would be expected to make more entries into the open arms and spend more time there as well.

Experiment [2] concerns rats. Nature of the experiment: Light dark box. The format is in vivo. The following applies: for time to make the second transition back into the light box: Experiment 1, FIG. 16, 100 ng T007. The method, then: In these experiments, the following was measured: • 1. First transition to the dark box • 2. Second transition to the light box • 3. Total number of transitions • 4. Time spent in the light box
One half of the box is open at the top and is brightly lit. There is an opening to the dark-box that is covered by a lid.
Rats would prefer to be in the dark box and would be anxious about going into the light box.
Following the infusion, the rate is placed in the light box facing away from the opening to the dark box. A 10 minute recording is made. During these 10 minutes, measurements are made of four things: • 1. The time it takes for the rat to make the first transition into the dark box • 2. The time it takes for the rat to make the second transition from the dark box back into the light box • 3. Number of transitions between boxes • 4. Time spent in light box
Therefore, it would be expected than less anxious rats would take a longer time to make the first transition into the dark box, spend less time to make the second transition into the light box, make more transitions between boxes, and spend more time in the light box.

Experiment [3] concerns rats. Nature of the experiment: Olfactory fear conditioning. It is filed as in vivo. The following applies: Experiment 3, FIG. 36, 1 ng CBD, 0.25 nmol omega-3. The text has this: The olfactory fear conditioning protocol is for measurement of the formation of fear memory. This protocol lasts three days. On day 1, the rat is habituated to two boxes (one with a striped background and one with a polka dot back ground).
On day 2, the rat receives a drug infusion and is placed into one of the boxes (previously assigned as the “shock box”). While in the box, the rat is exposed to 2 odours (peppermint and almond). The rat is exposed to one odour followed by the other odour 5 times. One of these odours were previously assigned as the “shock” odour (CS+) such that after exposure to the “shock” odour, the rat would receive a foot shock. There was no foot shock following exposure to the “safe” odour (CS−). On day 3, the rat was placed in the safe box. They were exposed to each odour (both CS+ and CS−) one at a time for 5 minutes. During the 5 minutes, freezing behaviour was recorded.
It would be expected that CBD would block the formation of fear memory and the rats would freeze a similar amount to CS+ and CS−.
2-way repeated measures ANOVA was performed for the three experiments. With reference to FIG. 34, there was no significant interaction effect by group x CS (p=0.209).

Experiment [4] relates to dopamine neurons in the ventral tegmental area (VTA). Nature of the experiment: Electrophysiology: VTA dopamine neuron recording after intra-NAc infusion. The format is in vivo, rats. As to the method:
Three experiments were run of this type. All included a vehicle. In addition, the components were as follows: • Experiment 1: • 100 ng CBD; 100 ng CBD+100 ng T007; 100 ng T007 • Experiment 2: • 50 ng CBD; 0.5 nmol n−3; 50 ng CBD+0.5 nmol n−3 • Experiment 3: • 1 ng CBD; 0.25 nmol n−3; 1 ng CBD+0.25 nmol n−3; 1 ng CBD+0.25 nmol n−3+100 ng T007 • In the above: • CBD=cannabidiol • T007=T0070907 (PPARg antagonist) • n−3=omega-3
The omega-3 formulation includes equal amounts of DHA and EPA. Two doses were used in this study. 0.5 nmol n−3 is made up of 0.5 nmol DHA and 0.5 nmol EPA. 0.25 nmol n−3 is made up of 0.25 nmol DHA and 0.25 nmol EPA.
In this procedure, rats were anesthetized with urethane. An electrode was used to record the baseline frequency of dopamine neurons in the ventral tegmental area (VTA) for 5 minutes. After the baseline recording, combinations of CBD, omega-3, and T007 (a PPARg antagonist) were infused into the nucleus accumbens (NAc).
The post-infusion frequency of that neuron was compared to its pre-infusion frequencies.
One of the characteristics of dopamine cells is that they have a tonic mode of firing and a burst mode of firing. Therefore, both the frequency and burst changes following infusions were analyzed. FIG. 1 looks at the frequency of VTA dopamine cells. The Y-axis is frequency (% Baseline). […] This means that after an intra-NAc infusion of 100 ng CBD, the dopamine cell would decrease in frequency about 15%.
FIG. 2 looking at difference in burst percentage. A burst is a group of signals occurring in a short period of time. Specifically, in this experiment, a burst is defined to be an event where 2 spikes occur within a timespan of 80 ms. […] As such, the number of bursts that occurred during pre-infusion was recording and the number of spikes that occurred in those bursts was determined. The number of those spikes occurring in those bursts was divided by the total number of spikes that occurred during the pre-infusion recording The same was done for the post-infusion recording and the difference between these 2 values was determined.

Setting [5] is: Experiment 3, FIG. 12, 1 ng CBD, 0.25 nmol omega-3, combination, combination+100 ng T007.
[6] abbreviates: 1 ng CBD, 0.25 nmol omega-3, combination, combination+100 ng T007.
[7] abbreviates: 100 ng CBD, 100 ng CBD+100 ng T007.
Setting [8] is: Experiment 3, FIG. 24, 1 ng CBD, 0.25 nmol omega-3, combination, combination+100 ng T007.
[9] abbreviates: first experiment, FIG. 17, 100 ng CBD, 100 ng CBD+100 ng T007.
Setting [10] is: first experiment, FIG. 18, 100 ng CBD, 100 ng CBD+100 ng T007.
Where [11] appears, read: Experiment 3, FIG. 5, 1 ng CBD, 0.25 nmol omega-3, 1 ng CBD+0.25 nmol omega-3, combination+100 ng T007, intra-NAc, compared to vehicle.

`O=C(Nc1ccncc1)c1cc([N+](=O)[O-])ccc1Cl` [T007]: the “time spent in open arms” value in experiment [1] (setting [5]) was “blocked”. For the same compound, in experiment [1] (setting [6]), the “number of entries into the open arms” value is given as “blocked”. The “time to make the second transition back into the light box” value in experiment [2] (setting [7]) was “blocked”. Besides, the “time to make the second transition” value in experiment [2] (setting [8]) was “blocked”. Further, the “number of transitions between boxes” value in experiment [2] (setting [9]) was “blocked”. Further, in experiment [2] (setting [10]), the “time spent in the light box” value is on record as “blocked”. The “difference between the freezing time to CS+ and CS− (fear memory formation)” value in experiment [3] (combination, combination+100 ng T007) is reported as “blocked slightly”. The VTA dopamine activity entry in experiment [4] (setting [11]) is recorded as “blocked”.
Turning to `C=C(C)[C@@H]1CCC(C)=C[C@H]1c1c(O)cc(CCCCC)cc1O` [CBD, cannabidiol], the “time spent in open arms” value was “slight increase” in experiment [1] (Experiment 1, FIG. 8, 100 ng CBD, 100 ng CBD+100 ng T007, 100 ng T007, 10 minutes); “not effective” in experiment [1] (Experiment 2, FIG. 10, 50 ng CBD, 0.5 nmol omega-3, 50 ng CBD+0.5 nmol omega-3); “ineffective” in experiment [1] (setting [5]). Moreover, the “number of entries into open arms” value in experiment [1] (Experiment 1, FIG. 9, 100 ng CBD, 100 ng CBD+100 ng T007, 100 ng T007, 10 minutes) is “slight increase”; in experiment [1] (Experiment 2, FIG. 11, 50 ng CBD, 0.5 nmol omega-3, 50 ng CBD+0.5 nmol omega-3), “not effective”. In experiment [1] (setting [6]), the “number of entries into the open arms” value is listed as “not effective”. Besides, in experiment [2] (setting [7]), the “time to make the second transition back into the light box” value is given as “significantly decreased”. In addition, the “time to make the second transition” value in experiment [2] (Experiment 2, FIG. 20, 50 ng CBD, 0.5 nmol omega-3, 50 ng CBD+0.5 nmol omega-3) is “not effective”; in experiment [2] (setting [8]) it was “ineffective”. In addition, the “number of transitions between boxes” value in experiment [2] (Experiment 3, FIG. 25, 1 ng CBD, 0.25 nmol omega-3, 1 ng CBD+0.25 nmol omega-3) is on record as “ineffective”; in experiment [2] (setting [9]), “significantly increased”. Further, the “time spent in the light box” value in experiment [2] (Experiment 3, FIG. 26, 1 ng CBD, 0.25 nmol omega-3, 1 ng CBD+0.25 nmol omega-3) is given as “ineffective”; in experiment [2] (setting [10]), “significantly increased”. For the same compound, the “freezing time compared to vehicle” value in experiment [3] (1 ng CBD+0.25 nmol omega-3) was “not different from vehicle”. Also, the “frequency (% Baseline) of VTA dopamine cells” value in experiment [4] (Experiment 1, FIG. 1, 100 ng CBD intra-NAc infusion, post- vs pre-infusion) is given as “about 85%”. For the same compound, in experiment [4] (Experiment 1, FIG. 1, 100 ng CBD, 100 ng CBD+100 ng T007, 100 ng T007, intra-NAc), the VTA dopamine frequency entry is “decreasing trend”. Besides, the “decrease in frequency of the dopamine cell” value in experiment [4] (Experiment 1, FIG. 1, after intra-NAc infusion of 100 ng CBD) is “about 15%”. For the same compound, in experiment [4] (Experiment 1, FIG. 2, 100 ng CBD, 100 ng CBD+100 ng T007, 100 ng T007, intra-NAc), the “difference in burst percentage (VTA DA bursts)” value is given as “very slight decrease”. For the same compound, the VTA dopamine activity entry in experiment [4] (Experiment 2, FIG. 3, 50 ng CBD, 0.5 nmol omega-3, 50 ng CBD+0.5 nmol omega-3, intra-NAc) is “ineffective”; in experiment [4] (setting [11]), “not different from vehicle”.
